We go through 28 compounds from patent publication US8329904B2, “Azacyclic derivatives” (Hoffmann-La Roche Inc., priority 2009, dated 2012).

The assay has as its target T1, human HSL (Homo sapiens, UniProt Q05469).
T1 construct: overlapping PCR to generate a full length human HSL ORF with a 3′-His6 tag; His6 (C); made in house; host or cells: High 5 insect cells (baculovirus, pFast-BAC)
T1 sequence (Q05469 1-1076): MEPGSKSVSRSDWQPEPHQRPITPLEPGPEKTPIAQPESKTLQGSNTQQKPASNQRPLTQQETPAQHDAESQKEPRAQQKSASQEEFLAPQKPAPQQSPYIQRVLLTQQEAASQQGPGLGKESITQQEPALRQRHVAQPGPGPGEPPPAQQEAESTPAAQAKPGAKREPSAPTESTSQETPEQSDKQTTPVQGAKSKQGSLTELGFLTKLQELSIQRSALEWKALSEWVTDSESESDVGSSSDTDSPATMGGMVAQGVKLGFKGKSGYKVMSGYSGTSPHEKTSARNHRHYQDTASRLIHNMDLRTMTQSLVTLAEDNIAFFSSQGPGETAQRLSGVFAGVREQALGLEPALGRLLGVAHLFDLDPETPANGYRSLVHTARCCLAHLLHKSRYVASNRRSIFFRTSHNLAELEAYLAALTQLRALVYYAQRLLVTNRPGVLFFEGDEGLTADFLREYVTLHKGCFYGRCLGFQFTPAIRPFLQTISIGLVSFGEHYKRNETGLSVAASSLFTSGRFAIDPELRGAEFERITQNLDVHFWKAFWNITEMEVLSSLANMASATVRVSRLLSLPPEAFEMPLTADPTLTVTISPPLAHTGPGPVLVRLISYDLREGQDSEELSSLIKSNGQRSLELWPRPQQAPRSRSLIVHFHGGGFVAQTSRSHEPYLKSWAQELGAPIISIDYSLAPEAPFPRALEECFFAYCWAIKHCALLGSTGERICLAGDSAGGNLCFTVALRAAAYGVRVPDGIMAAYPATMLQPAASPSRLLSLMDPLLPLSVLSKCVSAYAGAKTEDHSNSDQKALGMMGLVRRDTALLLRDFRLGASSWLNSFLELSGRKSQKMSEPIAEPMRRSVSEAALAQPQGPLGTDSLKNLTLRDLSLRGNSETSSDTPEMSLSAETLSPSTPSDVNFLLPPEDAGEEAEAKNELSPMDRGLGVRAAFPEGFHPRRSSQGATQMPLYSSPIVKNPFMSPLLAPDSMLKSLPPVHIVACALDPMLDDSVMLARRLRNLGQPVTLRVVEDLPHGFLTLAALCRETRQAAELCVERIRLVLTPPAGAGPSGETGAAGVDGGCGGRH
The experiment in a line: Human Hormone-Sensitive Lipase (HSL) Enzyme Inhibition Assay. Type of assay: biochemical. The following applies: colorimetric assay, 2,3-dimercapto-1-propanol tributyrate (DMPT) substrate, 37° C. for 20 minutes, absorbance at 405 nm; read-out: HSL hum IC50. The method in brief: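 Colorimetric thioester hydrolysis: compounds in DMSO series mixed with DMPT (1.5 mM) in MOPS pH 7.2 with BSA, then baculovirus-expressed His6-tagged full-length human HSL added, 37° C, 20 min. DTNB plus detergents added, 15 min room temperature, absorbance at 405 nm.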

On to `CCc1ccc(N2CCC3(CCN(C(=O)N4CCCCC4)CC3)C2=O)cc1` [Example 255, 2-(4-Ethyl-phenyl)-8-(piperidine-1-carbonyl)-2,8-diaza-spiro[4.5]decan-1-one], for which the half-inhibitory concentration (IC50) (as a rule, the concentration needed to halve the response being measured) is 180 nM.
The result for `O=C(N1CCCCC1)N1CCC2(CC1)CCN(c1ccc(OC(F)(F)F)cc1)C2=O` [Example 256, 8-(Piperidine-1-carbonyl)-2-(4-trifluoromethoxy-phenyl)-2,8-diaza-spiro[4.5]decan-1-one] reads 100 nM; that for `O=C(N1CCOCC1)N1CCC2(CC1)CCN(c1ccc(OC(F)(F)F)cc1)C2=O` [Example 257, 8-(Morpholine-4-carbonyl)-2-(4-trifluoromethoxy-phenyl)-2,8-diaza-spiro[4,5]decan-1-one], 610 nM; that for `CCc1ccc(N2CCC3(CCN(C(=O)Nc4ccc(F)cc4)CC3)C2=O)cc1` [Example 258, 2-(4-Ethyl-phenyl)-1-oxo-2,8-diaza-spiro[4.5]decane-8-carboxylic acid (4-fluoro-phenyl)-amide], 400 nM.
The result for `O=C(Nc1ccc(F)cc1)N1CCC2(CC1)CCN(c1ccc(OC(F)(F)F)cc1)C2=O` [Example 259, 1-Oxo-2-(4-trifluoromethoxy-phenyl)-2,8-diaza-spiro[4.5]decane-8-carboxylic acid (4-fluoro-phenyl)-amide] reads 400 nM.
The result for `CCc1ccc(N2CCC3(CCN(C(=O)NCc4ccc(F)cc4)CC3)C2=O)cc1` [Example 260, 2-(4-Ethyl-phenyl)-1-oxo-2,8-diaza-spiro[4.5]decane-8-carboxylic acid 4-fluoro-benzylamide] reads 310 nM; that for `O=C(NCc1ccc(F)cc1)N1CCC2(CC1)CCN(c1ccc(OC(F)(F)F)cc1)C2=O` [Example 261, 1-Oxo-2-(4-trifluoromethoxy-phenyl)-2,8-diaza-spiro[4.5]decane-8-carboxylic acid 4-fluoro-benzylamide], 190 nM.
Regarding `O=C(NCc1ccccc1Cl)N1CCC2(CC1)CCN(c1ccc(OC(F)(F)F)cc1)C2=O` [Example 262, 1-Oxo-2-(4-trifluoromethoxy-phenyl)-2,8-diaza-spiro[4.5]decane-8-carboxylic acid 2-chloro-benzylamide], the IC50 amounted to 340 nM.
The result for `CCc1ccc(N2CCC3(CCN(C(=O)NCCc4ccccc4)CC3)C2=O)cc1` [Example 263, 2-(4-Ethyl-phenyl)-1-oxo-2,8-diaza-spiro[4.5]decane-8-carboxylic acid phenethyl-amide] reads 160 nM.
The result for `O=C(NCCc1ccccc1)N1CCC2(CC1)CCN(c1ccc(OC(F)(F)F)cc1)C2=O` [Example 264, 1-Oxo-2-(4-trifluoromethoxy-phenyl)-2,8-diaza-spiro[4.5]decane-8-carboxylic acid phenethyl-amide] reads 140 nM.
The result for `O=C(N1CCCC1)N1CCC2(CC1)CCN(c1ccc(OC(F)(F)F)cc1)C2=O` [Example 265, 8-(Pyrrolidine-1-carbonyl)-2-(4-trifluoromethoxy-phenyl)-2,8-diaza-spiro[4.5]decan-1-one] reads 200 nM.
On to `CCN(CC)C(=O)N1CCC2(CC1)CCN(c1ccc(OC(F)(F)F)cc1)C2=O` [Example 266, 1-Oxo-2-(4-trifluoromethoxy-phenyl)-2,8-diaza-spiro[4.5]decane-8-carboxylic acid diethylamide], for which the 50% inhibitory concentration (IC50) worked out at 330 nM.
The result for `CC1CCCN1C(=O)N1CCC2(CC1)CCN(c1ccc(OC(F)(F)F)cc1)C2=O` (stereo not shown) [Example 267, 8-(2-Methyl-pyrrolidine-1-carbonyl)-2-(4-trifluoromethoxy-phenyl)-2,8-diaza-spiro[4.5]decan-1-one] reads 150 nM; that for `CCCN(CC)C(=O)N1CCC2(CC1)CCN(c1ccc(OC(F)(F)F)cc1)C2=O` [Example 268, 1-Oxo-2-(4-trifluoromethoxy-phenyl)-2,8-diaza-spiro[4.5]decane-8-carboxylic acid ethyl-propyl-amide], 220 nM.
As to `CCCCN(C)C(=O)N1CCC2(CC1)CCN(c1ccc(OC(F)(F)F)cc1)C2=O` [Example 269, 1-Oxo-2-(4-trifluoromethoxy-phenyl)-2,8-diaza-spiro[4.5]decane-8-carboxylic acid butyl-methyl-amide], the concentration for half-maximal inhibition (IC50) was determined as 70 nM.
The result for `CC(C)CN(C)C(=O)N1CCC2(CC1)CCN(c1ccc(OC(F)(F)F)cc1)C2=O` [Example 270, 1-Oxo-2-(4-trifluoromethoxy-phenyl)-2,8-diaza-spiro[4.5]decane-8-carboxylic acid isobutyl-methyl-amide] reads 70 nM; that for `O=C(N1CCCCCC1)N1CCC2(CC1)CCN(c1ccc(OC(F)(F)F)cc1)C2=O` [Example 271, 8-(Azepane-1-carbonyl)-2-(4-trifluoromethoxy-phenyl)-2,8-diaza-spiro[4.5]decan-1-one], 220 nM.
Consider `CC1CCCCN1C(=O)N1CCC2(CC1)CCN(c1ccc(OC(F)(F)F)cc1)C2=O` (stereo not shown) [Example 272, 8-(2-Methyl-piperidine-1-carbonyl)-2-(4-trifluoromethoxy-phenyl)-2,8-diaza-spiro[4.5]decan-1-one], for which the half-maximal inhibitory concentration (IC50) is 100 nM.
The result for `CCCCCN(C)C(=O)N1CCC2(CC1)CCN(c1ccc(OC(F)(F)F)cc1)C2=O` [Example 273, 1-Oxo-2-(4-trifluoromethoxy-phenyl)-2,8-diaza-spiro[4.5]decane-8-carboxylic acid methyl-pentyl-amide] reads 80 nM.
The result for `CCN(CCOC)C(=O)N1CCC2(CC1)CCN(c1ccc(OC(F)(F)F)cc1)C2=O` [Example 274, 1-Oxo-2-(4-trifluoromethoxy-phenyl)-2,8-diaza-spiro[4.5]decane-8-carboxylic acid ethyl-(2-methoxy-ethyl)-amide] reads 140 nM; that for `CN(C(=O)N1CCC2(CC1)CCN(c1ccc(OC(F)(F)F)cc1)C2=O)c1ccccc1` [Example 275, 1-Oxo-2-(4-trifluoromethoxy-phenyl)-2,8-diaza-spiro[4.5]decane-8-carboxylic acid methyl-phenyl-amide], 60 nM; that for `CN(C(=O)N1CCC2(CC1)CCN(c1ccc(OC(F)(F)F)cc1)C2=O)C1CCCCC1` [Example 276, 1-Oxo-2-(4-trifluoromethoxy-phenyl)-2,8-diaza-spiro[4.5]decane-8-carboxylic acid cyclohexyl-methyl-amide], 70 nM.
The result for `O=C(N1CCC2(CC1)CCN(c1ccc(OC(F)(F)F)cc1)C2=O)N1Cc2ccccc2C1` [Example 277, 8-(1,3-Dihydro-isoindole-2-carbonyl)-2-(4-trifluoromethoxy-phenyl)-2,8-diaza-spiro[4.5]decan-1-one] reads 260 nM; that for `CN(Cc1ccccc1)C(=O)N1CCC2(CC1)CCN(c1ccc(OC(F)(F)F)cc1)C2=O` [Example 278, 1-Oxo-2-(4-trifluoromethoxy-phenyl)-2,8-diaza-spiro[4.5]decane-8-carboxylic acid benzyl-methyl-amide], 120 nM; that for `CCN(C(=O)N1CCC2(CC1)CCN(c1ccc(OC(F)(F)F)cc1)C2=O)c1ccccc1` [Example 279, 1-Oxo-2-(4-trifluoromethoxy-phenyl)-2,8-diaza-spiro[4.5]decane-8-carboxylic acid ethyl-phenyl-amide], 40 nM.
Regarding `CN(C(=O)N1CCC2(CC1)CCN(c1ccc(OC(F)(F)F)cc1)C2=O)c1cccc(F)c1` [Example 280, 1-Oxo-2-(4-trifluoromethoxy-phenyl)-2,8-diaza-spiro[4.5]decane-8-carboxylic acid (3-fluoro-phenyl)-methyl-amide], the concentration for half-maximal inhibition (IC50) came to 90 nM.
Turning to `O=C(N1CCC2(CC1)CCN(c1ccc(OC(F)(F)F)cc1)C2=O)N1CCCc2ccccc21` [Example 281, 8-(3,4-Dihydro-2H-quinoline-1-carbonyl)-2-(4-trifluoromethoxy-phenyl)-2,8-diaza-spiro[4.5]decan-1-one], the 50% inhibitory concentration (IC50) was 110 nM.
The result for `CN(CCc1ccccc1)C(=O)N1CCC2(CC1)CCN(c1ccc(OC(F)(F)F)cc1)C2=O` [Example 282, 1-Oxo-2-(4-trifluoromethoxy-phenyl)-2,8-diaza-spiro[4.5]decane-8-carboxylic acid methyl-phenethyl-amide] reads 130 nM.
